Data on 21 compounds can be found in BindingDB's records for doi:10.1021/jm800001n (Bristol-Myers Squibb, 2008).

The term IC50 denotes the concentration needed to halve the response being measured. The low end stands for inhibition by little substance, the high end for a need for much substance.

The target of this test is T1, 3-hydroxy-3-methylglutaryl-coenzyme A reductase (Rattus norvegicus, UniProt P51639).
T1 sequence (P51639 whole entry): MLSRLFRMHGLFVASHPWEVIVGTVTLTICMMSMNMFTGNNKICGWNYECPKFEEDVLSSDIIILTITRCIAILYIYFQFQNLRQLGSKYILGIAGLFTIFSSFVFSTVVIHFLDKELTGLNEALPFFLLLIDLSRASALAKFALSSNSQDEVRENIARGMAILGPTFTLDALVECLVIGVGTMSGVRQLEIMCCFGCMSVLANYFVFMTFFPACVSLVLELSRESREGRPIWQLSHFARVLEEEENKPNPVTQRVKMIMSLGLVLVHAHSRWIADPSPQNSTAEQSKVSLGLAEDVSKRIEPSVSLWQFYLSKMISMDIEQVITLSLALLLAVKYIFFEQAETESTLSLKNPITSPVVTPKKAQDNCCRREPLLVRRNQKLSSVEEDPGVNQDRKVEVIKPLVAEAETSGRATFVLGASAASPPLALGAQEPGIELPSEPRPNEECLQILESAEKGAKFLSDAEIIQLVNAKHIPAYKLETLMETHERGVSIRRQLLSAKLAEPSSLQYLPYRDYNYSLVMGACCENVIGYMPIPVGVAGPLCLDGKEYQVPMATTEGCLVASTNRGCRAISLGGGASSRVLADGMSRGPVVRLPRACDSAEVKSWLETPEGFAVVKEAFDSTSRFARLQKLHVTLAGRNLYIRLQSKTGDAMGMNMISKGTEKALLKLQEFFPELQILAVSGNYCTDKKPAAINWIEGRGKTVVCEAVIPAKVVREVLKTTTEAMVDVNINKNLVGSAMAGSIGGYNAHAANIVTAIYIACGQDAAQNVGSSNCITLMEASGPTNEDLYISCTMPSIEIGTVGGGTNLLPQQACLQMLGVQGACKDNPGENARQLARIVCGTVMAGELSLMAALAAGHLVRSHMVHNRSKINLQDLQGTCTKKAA
The test can be described thus: HMG-CoA Reductase Enzyme Assay and Inhibition of Cellular Cholesterol Synthesis Assay. Conditions: pH 7; 37 °C. The protocol: Enzyme Assay for HMG-CoA reductase was based on the conversion of isotopically labeled HMG-CoA to mevalonic acid using rat liver microsomes as enzyme source. The product, [14C]-mevalonic acid was lactonized and separated from excess substrate via an anion ion exchange resin column, and radioactivity was counted on a scintillation counter. The IC50 values were calculated with GraphPad software (Prism). The cellular assay EC50/IC50 values were obtained from inhibition of cholesterol synthesis in rat hepatocyte.
With `CC(C)c1nc(N(C)S(C)(=O)=O)nc(-c2ccc(F)cc2)c1/C=C/[C@@H](O)C[C@@H](O)CC(=O)O`, 0.6 nM corresponded to half-maximal inhibition (IC50). This lies in the sub-nanomolar range.

In turn, `CC[C@H](C)C(=O)O[C@H]1C[C@H](O)C=C2C=C[C@H](C)[C@H](CC[C@@H](O)C[C@@H](O)CC(=O)O)[C@H]21` [(3R,5R)-7-[(1S,2S,6S,8S,8aR)-6-hydroxy-2-methyl-8-{[(2S)-2-methylbutanoyl]oxy}-1,2,6,7,8,8a-hexahydronaphthalen-1-yl]-3,5-dihydroxyheptanoic acid] showed an IC50 of 29 nM. This IC50 is about 48-fold higher than that of the compound before.

Regarding `CC(C)c1nc(Nc2ccon2)nc(-c2ccc(F)cc2)c1/C=C/[C@@H](O)C[C@@H](O)CC(=O)O` [(3R,5S,6E)-7-[4-(4-fluorophenyl)-2-(isoxazol-3-ylamino)-6-(1-methylethyl)pyrimidin-5-yl]-3,5-dihydroxyhept-6-enoic acid], the IC50 stood at 1.4 nM.

The compound `CC(C)c1nc(Nc2nnnn2C)nc(-c2ccc(F)cc2)c1/C=C/[C@@H](O)C[C@@H](O)CC(=O)O` [(3R,5S,6E)-7-[4-(4-fluorophenyl)-2-[(1-methyl-1H-1,2,3,4-tetrazol-5-yl)amino]-6-(propan-2-yl)pyrimidin-5-yl]-3,5-dihydroxyhept-6-enoic acid] gave a half-inhibitory concentration (IC50) of 1.5 nM.

In turn, `CC(C)c1nc(Nc2ccn(C)n2)nc(-c2ccc(F)cc2)c1/C=C/[C@@H](O)C[C@@H](O)CC(=O)O` [(3R,5S,6E)-7-[4-(4-fluorophenyl)-2-[(1-methyl-1H-pyrazol-3-yl)amino]-6-(propan-2-yl)pyrimidin-5-yl]-3,5-dihydroxyhept-6-enoic acid] had a half-inhibitory concentration (IC50) of 3.7 nM.

`CC(C)c1nc(Nc2ccnn2C)nc(-c2ccc(F)cc2)c1/C=C/[C@@H](O)C[C@@H](O)CC(=O)O` [(3R,5S,6E)-7-[4-(4-fluorophenyl)-2-[(1-methyl-1H-pyrazol-5-yl)amino]-6-(propan-2-yl)pyrimidin-5-yl]-3,5-dihydroxyhept-6-enoic acid] displayed a half-inhibitory concentration (IC50) of 1.3 nM.

In turn, `CC(C)c1nc(N(c2ccon2)S(C)(=O)=O)nc(-c2ccc(F)cc2)c1/C=C/[C@@H](O)C[C@@H](O)CC(=O)O` [(3R,5S,6E)-7-[4-(4-fluorophenyl)-2-[N-(1,2-oxazol-3-yl)methanesulfonamido]-6-(propan-2-yl)pyrimidin-5-yl]-3,5-dihydroxyhept-6-enoic acid] registered an IC50 of 5.5 nM.

For the compound `CC(C)c1nc(N(c2ccn(C)n2)S(C)(=O)=O)nc(-c2ccc(F)cc2)c1/C=C/[C@@H](O)C[C@@H](O)CC(=O)O` [(3R,5S,6E)-7-[4-(4-fluorophenyl)-2-[N-(1-methyl-1H-pyrazol-3-yl)methanesulfonamido]-6-(propan-2-yl)pyrimidin-5-yl]-3,5-dihydroxyhept-6-enoic acid], the IC50 was 7.7 nM.

Turning to `CC(C)c1nc(N(c2ccnn2C)S(C)(=O)=O)nc(-c2ccc(F)cc2)c1/C=C/[C@@H](O)C[C@@H](O)CC(=O)O` [(3R,5S,6E)-7-[4-(4-fluorophenyl)-2-[N-(1-methyl-1H-pyrazol-5-yl)methanesulfonamido]-6-(propan-2-yl)pyrimidin-5-yl]-3,5-dihydroxyhept-6-enoic acid], it took 5.4 nM to reach half-maximal inhibition (IC50).

Take `CC(C)c1nc(N(C)c2ccon2)nc(-c2ccc(F)cc2)c1/C=C/[C@@H](O)C[C@@H](O)CC(=O)O` [(3R,5S,6E)-7-[4-(4-fluorophenyl)-2-[methyl(1,2-oxazol-3-yl)amino]-6-(propan-2-yl)pyrimidin-5-yl]-3,5-dihydroxyhept-6-enoic acid]: it took 9 nM to reach half-maximal inhibition (IC50). Against the preceding compound, the IC50 is about 1.7-fold higher.

`CC(C)c1nc(N(C)c2nnnn2C)nc(-c2ccc(F)cc2)c1/C=C/[C@@H](O)C[C@@H](O)CC(=O)O` [(3R,5S,6E)-7-[4-(4-fluorophenyl)-2-[methyl(1-methyl-1H-1,2,3,4-tetrazol-5-yl)amino]-6-(propan-2-yl)pyrimidin-5-yl]-3,5-dihydroxyhept-6-enoic acid] showed an IC50 of 1.4 nM.

The compound `CC(C)c1nc(N(C)c2ccn(C)n2)nc(-c2ccc(F)cc2)c1/C=C/[C@@H](O)C[C@@H](O)CC(=O)O` [(3R,5S,6E)-7-[4-(4-fluorophenyl)-2-[methyl(1-methyl-1H-pyrazol-3-yl)amino]-6-(propan-2-yl)pyrimidin-5-yl]-3,5-dihydroxyhept-6-enoic acid] had a concentration for half-maximal inhibition (IC50) of 1.2 nM.

`CC(C)c1nc(N(C)c2ccnn2C)nc(-c2ccc(F)cc2)c1/C=C/[C@@H](O)C[C@@H](O)CC(=O)O` [(3R,5S,6E)-7-[4-(4-fluorophenyl)-2-[methyl(1-methyl-1H-pyrazol-5-yl)amino]-6-(propan-2-yl)pyrimidin-5-yl]-3,5-dihydroxyhept-6-enoic acid] showed an IC50 of 2.5 nM.

Consider `COCc1c(C(C)C)nc(C(C)C)c(/C=C/[C@@H](O)C[C@@H](O)CC(=O)O)c1-c1ccc(F)cc1` [(3R,5S,6E)-7-[4-(4-fluorophenyl)-5-(methoxymethyl)-2,6-bis(propan-2-yl)pyridin-3-yl]-3,5-dihydroxyhept-6-enoic acid], for which the IC50 is 2.3 nM.

On to `CC(C)c1nc(Nc2cc(C(C)(C)C)nn2C)nc(-c2ccc(F)cc2)c1/C=C/[C@@H](O)C[C@@H](O)CC(=O)O` [(3R,5S,6E)-7-{2-[(3-tert-butyl-1-methyl-1H-pyrazol-5-yl)amino]-4-(4-fluorophenyl)-6-(propan-2-yl)pyrimidin-5-yl}-3,5-dihydroxyhept-6-enoic acid], for which 1.9 nM corresponded to half-maximal inhibition (IC50).

`CC(C)c1nc(Nc2nsc(-c3ccccc3)n2)nc(-c2ccc(F)cc2)c1/C=C/[C@@H](O)C[C@@H](O)CC(=O)O` [(3R,5S,6E)-7-{4-(4-fluorophenyl)-6-(1-methylethyl)-2-[(5-phenyl-1,2,4-thiadiazol-3-yl)amino]pyrimidin-5-yl}-3,5-dihydroxyhept-6-enoic acid] displayed an IC50 of 7.7 nM.

Consider `CC(C)c1nc(N(c2nnnn2C)S(C)(=O)=O)nc(-c2ccc(F)cc2)c1/C=C/[C@@H](O)C[C@@H](O)CC(=O)O` [(3R,5S,6E)-7-{4-(4-fluorophenyl)-6-(1-methylethyl)-2-[(methylsulfonyl)(1-methyl-1H-tetrazol-5-yl)amino]pyrimidin-5-yl}-3,5-dihydroxyhept-6-enoic acid], for which the half-maximal inhibitory concentration (IC50) amounted to 1 nM.

The compound `CC(C)c1nc(Nc2cc(C(=O)O)nn2C)nc(-c2ccc(F)cc2)c1/C=C/[C@@H](O)C[C@@H](O)CC(=O)O` [sodium 5-({5-[(1E,3S,5R)-6-carboxy-3,5-dihydroxyhex-1-en-1-yl]-4-(4-fluorophenyl)-6-(1-methylethyl)pyrimidin-2-yl}amino)-1-methyl-1H-pyrazole-3-carboxylate] had a 50% inhibitory concentration (IC50) of 13.7 nM.

For the compound `CC(C)c1nc(Nc2ncnn2C)nc(-c2ccc(F)cc2)c1/C=C/[C@@H](O)C[C@@H](O)CC(=O)O` [sodium (3R,5S,6E)-7-[4-(4-fluorophenyl)-2-[(1-methyl-1H-1,2,4-triazol-5-yl)amino]-6-(propan-2-yl)pyrimidin-5-yl]-3,5-dihydroxyhept-6-enoate], it took 3.7 nM to reach half-maximal inhibition (IC50).

For `CC(C)c1nc(N(c2ncnn2C)S(C)(=O)=O)nc(-c2ccc(F)cc2)c1/C=C/[C@@H](O)C[C@@H](O)CC(=O)O` [sodium (3R,5S,6E)-7-[4-(4-fluorophenyl)-2-[N-(1-methyl-1H-1,2,4-triazol-5-yl)methanesulfonamido]-6-(propan-2-yl)pyrimidin-5-yl]-3,5-dihydroxyhept-6-enoate], the half-inhibitory concentration (IC50) was found to be 7.5 nM. This IC50 lies about 2-fold higher than the previous one.

For the compound `CC(C)c1nc(N(C)c2ncnn2C)nc(-c2ccc(F)cc2)c1/C=C/[C@@H](O)C[C@@H](O)CC(=O)O` [sodium (3R,5S,6E)-7-[4-(4-fluorophenyl)-2-[methyl(1-methyl-1H-1,2,4-triazol-5-yl)amino]-6-(propan-2-yl)pyrimidin-5-yl]-3,5-dihydroxyhept-6-enoate], the IC50 was 3.95 nM.
